Data published in patent US20060078504A1, “Sustanined-release pharmaceutical composition for lung administration” (priority 2003, published 2006).

Assay: Test Example 1: serum theophylline pharmacokinetics after intratracheal administration of solutions A to D to rats
Assay type: in vivo, Wistar male rats
Details: solution A, intratracheal vs intravenous (femoral vein), rat, FIG. 1
Protocol: Wistar male rats (body weight about 220 g) fasted for about 18 hours were used as experimental animals. […] That is, the rats were anesthetized with pentobarbital (about 32 mg/kg) and secured on their back on animal boards, the tracheas were exposed through a longitudinal incision. A section of polyethylene tube (i.d. 1.5 mm, o.d. 2.3 mm) 2.5 cm in length was inserted through the tracheal incision for a distance of 0.6 cm between the forth and fifth tracheal rings caudal to the thyroid cartilage. Each of one hundred microliters of drug solutions A-D was drawn into a glass microsyringe, and then rat was maintained at an angle of 80°. The tip of syringe was inserted through the polyethylene tube to 1-2 mm above the bifurcation of the trachea. Then, the solution was injected over a period of 1-2 sec. About 45 sec after the administration, the rat was positioned at an angle of 10° and the incision in the skin was then closed with suture.
The theophylline concentrations in the obtained serum were measured by HPLC.

Cn1c(=O)c2[nH]cnc2n(C)c1=O [theophylline]
pulmonary absorption compared with intravenous administration (in words): as quick and effective as achieved by intravenous administration
